Where two headings read alike, the source gives them in different places.
Tests used:
[1] = test system: P.aeruginosa in the biofilm; test: Antibacterial activity against cells immersed in a biofilm matrix (CFU, drop plate); type: cell-based; conditions: 24 hours
Protocol: To determine the effectiveness of the antibiotic against bacteria in […], bacteria were grown in Basal medium for 3 days at a temperature of 37° C. without swinging to obtain a dense biofilm [A. R Kayumov, Khakimullina E., Sharafutdinov I, Trizna E., Latypova L., Lien Thi, Margulis A., Bogachev M, Kurbangalieva A. Inhibition of biofilm formation in Bacillus subtilis by new halogenated furanoses. J. Antibiotics.—2014.—V. 68.—No 5.—P. 297-301.]. Then the biofilm was washed with a sterile 0.9% NaCl solution and fresh sterile medium was poured. Antiseptics were added to concentrations (1-16)×MBC (minimum bactericidal concentration) and incubated for 24 hours. Then the culture fluid was removed from the wells, washed once with 0.9% NaCl solution to remove non-adherent cells, and cell viability in biofilms was evaluated by counting CFU by Drop plate analysis [B. Herigstad, M Hamilton, J. Heersink How to optimize the drop plate method for enumerating bacteria. J Microbiol Methods.—2001.—V. 44.—P. 121-129]. To do this, the biofilm was mechanically removed from the surface and homogenized in 0.9% NaCl by pipetting and ultrasonic treatment. Then, serial 10-fold dilutions of the bacterial suspension in 0.9% NaCl were prepared, and 5 μI of each suspension were transferred to plates with dense nutrient medium. CFU was counted from drops containing 5-10 colonies.
The results of the study of antimicrobial activity against cells of the studied strains immersed in the biofilm matrix, in comparison with miramistin and benzalkonium chloride, are presented in FIGS. 1 and 2.

[2] = test system: Bovine rhinotracheitis virus (herpes virus family), vaccine strain TK-A (VIEV)-V2; test: Antiviral (virulicidal) activity, cytopathogenic effect on LCE cells; type: cell-based, IBR virus; conditions: for destruction of the monolayer, drug with the virus: virus incubated with drug one hour, LCE cells 72 hours; for concentration with virulicidal effect: herpes virus type 1, infectious titer 6.0 Ig TCD50/ml
Protocol: The study of the antiviral activity of compound I in vitro was carried out in accordance with [D. L. Kuznetsov, A. YA. Samuylenko, V. I. Belousov Immunofermentnaya diagnostika IRT KRS. Veterinariya.—2002.—No 3.—S. 22-25. D. L. Kuznetsov, A. Y. ? Samuylenko, V. I. Belousov Enzyme-linked immunosorbent assay for cattle IBR. Veterinary medicine.—2002.—No 3.—P. 22-25].
Cells of a light cow embryo (LCE) are obtained from the Federal State Budgetary Institution “All-Russian Institute of Experimental Veterinary Medicine”, Moscow. Bovine rhinotracheitis virus (herpes virus family), vaccine strain “TK-A (VIEV)-V2” was obtained from the Federal State Budgetary Institution “All-Russian Institute of Experimental Veterinary Medicine”, Moscow.
Evaluation of the antiviral activity of compound I was carried out in an appropriate medium on LCE cells that were infected with the IBR virus belonging to the type 1 herpes virus family.
The virus was incubated in the presence of compound I in a culture medium at 37° C. for one hour at various concentrations; miramistin and benzalkonium chloride served as control preparations. After incubation of the virus with substances, it was added to the cell culture, which was then incubated at 37° C., 5% CO2 for 72 hours.
Evaluation of the cytopathogenic effect was carried out visually by the state of the cell monolayer as compared with the controls (virus without incubation with the drug, the studied drug concentrations without the virus). The virus titer was calculated using the method of Reed-Muench in the modification of Ashmarin and expressed in Ig TCD50/ml.

[3] = test system: Aspergillus fumigates RCPF F-1248/880; test: Antifungal activity, 2-fold serial dilutions in Saburo glucose broth; type: cell-based, Asp. fumigates; conditions: for MIC: Aspergillus
Protocol: The study of the antifungal activity of compound I in vitro was carried out in accordance with [Metodicheskiye rekomendatsii No 2. Mikologicheskoye issledovaniye ob″yektov okruzhayushchey sredy i opredeleniye protivogribkovoy aktivnosti razlichnykh veshchestv.—GOU DPO SPbMAPO NII meditsinskoy mikologii im. P. N. Kashkina, GBOU VPO SZGMU im. I. I. Mechnikova Minzdrava. SPb.: Izd. Dom SPbMAPO.—2008.—S. 16. Methodological recommendations No 2. Mycological examination of environmental objects and determination of antifungal activity of various substances.—State Educational Institution of St. Petersburg Medical Academy of Postgraduate Education with Scientific Research Institute of Medical Mycology named after P. N. Kashkin, State Educational Institution of Higher Professional Education North-West State Medical University named after I. I. Mechnikov, Ministry of Health. St. Petersburg.:: Publishing House SPbMAPO.—2008.—P. 16].
The study of the antifungal activity of substances in vitro was carried out in a liquid nutrient medium (Saburo glucose broth) in biological tubes by the method of 2-fold serial dilutions. In test tubes, three parallel series of dilutions of the test substance were prepared in the following way.
Saburo's liquid broth was sterilely poured in 3 ml into each tube; 4.5 ml was poured into the first tube of the row. A total of 14 tubes were used in a row; of which the last was a control one. […] The growth of cultures was initially assessed visually, comparing the growth of microorganisms in the presence of test compounds with the growth of culture without them. […] The first lowest concentration of the substance (from a series of consecutive dilutions), where the growth of fungi was suppressed or not visually determined, was considered the minimum inhibitory concentration (MIC).
For the preparation of inoculum, were respectively used pure (2-5) days cultures of yeast and mycelial fungi, grown on Saburo's dense nutrient broth. […] The inoculum was used within 15 minutes after preparation; the purity of the fungal strains was monitored before each experiment. […]

Molecule | excess of MBC giving a decrease in the number of CFU by 3 orders of magnitude [1] | destruction of the monolayer, drug with the virus ([2]; 150 μg/ml) | destruction of the monolayer, drug with the virus ([2]; 200 μg/ml) | The value of the MIC ([3]; Asp. fumigates RCPF F-l248/880) [µg/mL] | concentration with virulicidal effect [2] [µg/mL] | MIC ([3]; RCPFF1248/880, Asp. fumigates RCPF F-l248/880, read-out: The value of the MIC) [µg/mL] | destruction of the monolayer, drug with the virus ([2]; 100 μg/ml) | MIC ([3]; RCPFF1248/880, read-out: The value of the MIC) [µg/mL]
alkyldimethyl(phenylmethyl) ammonium chloride [Benzalconium chloride] | 16 times | ++ (++ - −40-70% destruction of the monolayer) | − (−0-10% destruction of the monolayer) | 15.6 |  |  |  | 
CCCCCCCCCCCC[N+](C)(C)Cc1cnc(C[N+](C)(C)CCCCCCCCCCCC)c2c1COC(CC)O2 (stereo not drawn) [Compound I, 5,8-(Bis(methylene (N, N-dimethyl-N-dodecylammonium))-2-ethyl-4H-[1,3]dioxino [4,5-c]pyridiniumdichloride] | 4-8 times | ++ (++ - −40-70% destruction of the monolayer) | − (−0-10% destruction of the monolayer) |  | 200 | 62.5 |  | 
CCCCCCCCCCCCCC(=O)NCCC[N+](C)(C)Cc1ccccc1.O.[Cl-] [Miramistin, benzyldimethyl [3-(myristoylamino)propyl]-ammonium chloride monohydrate] | 16 times | − (−0-10% destruction of the monolayer) | − (−0-10% destruction of the monolayer) |  | 150 |  | +++ (+++ - 90-100% destruction of the monolayer) | 31.2

— US11014934B2, “Antiseptic drug” (AO “TATKHIMFARMPREPARATY”, priority 2017, dated 2021)
